Patent US9464092B2, “Transient protection of normal cells during chemotherapy” (G1 Therapeutics, Inc., priority 2013, dated 2016)
Where two headings read alike, the source gives them in different places.

What was measured:
[1] = test system: human renal proximal tubule cells; assay: γ-H2AX assay in renal proximal tubule cells with cisplatin; type: cell-based; details: 10 nM-1 uM with 25 uM cisplatin
Procedure: Normal renal proximal tubule epithelial cells were obtained from American Type Culture Collection (ATCC, Manassas, Va.). Cells were grown in an incubator at 37° C. in a humidified atmosphere of 5% CO2 in Renal Epithelial Cell Basal Media (ATCC) supplemented with Renal Epithelial Cell Growth Kit (ATCC) in 37° C. humidified incubator. […] For the γ-H2AX assay, cells were fixed, permeabilized, and stained with anti-γ-H2AX as per the γ-H2AX Flow Kit (Millipore) and quantitated by flow cytometry. Data was analyzed using FlowJo 2.2 software developed by TreeStar, Inc. Caspase 3/7 activation was measured using the Caspase-Glo 3/7 Assay System (Promega, Madison, Wis.) by following the manufacturer's instructions.

blood cell counts [2] = assay: 5FU-induced myelosuppression, repeated cycles; type: in vivo, C57Bl/6 mice; details: 150 mg/kg oral before 5FU 150 mg/kg i.p., every 21 days for 3 cycles
Text: This was repeated every 21 days for 3 cycles. Blood samples were taken for hematology analysis on Day 10 of Cycles 1-3.

[3] = test system: human renal proximal tubule cells; assay: Cell cycle analysis of renal proximal tubule cells with etoposide or cisplatin; type: cell-based; details: 10-1000 nM with etoposide or cisplatin
Procedure: (§1) The ability of Cdk4/6 inhibitors to protect human renal proximal tubule cells from chemotherapy induced DNA damage was analyzed using etoposide and cisplatin. […] At the conclusion of the experiment, cells were harvested, fixed, and stained with propidium iodide (a DNA intercalator), which fluoresces strongly red (emission maximum 637 nm) when excited by 488 nm light. Samples were run on Dako Cyan flow cytometer.

[4] = test system: Rb phosphorylation at Ser780 and Ser807/811; assay: Rb phosphorylation western blot; type: cell-based; details: 300 nM
Procedure: The Cdk4/6-cyclin D complex is essential for progression from G1 to the S-phase of the DNA cell cycle. This complex phosphorylates the retinoblastoma tumor suppressor protein (Rb). […] Samples were lysed and protein was assayed by western blot analysis. Rb phosphorylation was measured at two sites targeted by the Cdk4/6-cyclin D complex, Ser780 and Ser807/811 using species specific antibodies.

[5] = test system: telomerized human diploid fibroblasts (tHDFs); assay: Caspase 3/7 activation in tHDF cells with chemotherapy; type: cell-based; details: pretreatment before carboplatin, doxorubicin, etoposide, camptothecin, and paclitaxel
Procedure: (§2) Cell survival was determined by Cell TiterGlo assay per manufacturer's recommendations. For both γ-H2AX and caspase 3/7 assays, cells were plated and allowed to become adherent for 24 hours. […] For γ-H2AX, cells were harvested for analysis 8 hours after chemotherapy exposure. For the γ-H2AX assay, cells were fixed, permeabilized, and stained with anti-γ-H2AX as per the γ-H2AX Flow Kit (Millipore) and quantitated by flow cytometry. Data was analyzed using FlowJo 2.2 software developed by TreeStar, Inc. For the in vitro caspase 3/7 assay, cells were harvested 24 hours post chemotherapy treatment. Caspase 3/7 activation was measured using the Caspase-Glo® 3/7 Assay System (Promega) per manufacturer's recommendations.

[6] = test system: WM2664 cells (CDK4/6-dependent cell line); assay: Cell cycle arrest by propidium iodide flow cytometry, WM2664; type: cell-based; details: 300 nM, 24 hours
Text: To test the ability of Cdk4/6 inhibitors to induce a clean G1-arrest, a cell based screening method was used consisting of two Cdk4/6-dependent cell lines (tHS68 and WM2664; Rb-positive) and one Cdk4/6-independent (A2058; Rb-negative) cell line. […] At the conclusion of the experiment, cells were harvested, fixed, and stained with propidium iodide (a DNA intercalator), which fluoresces strongly red (emission maximum 637 nm) when excited by 488 nm light. Samples were run on Dako Cyan flow cytometer and >10,000 events were collected for each sample. Data were analyzed using FlowJo 2.2 software developed by TreeStar, Inc.

[7] = test system: human renal proximal tubule cells; assay: DNA cell cycle analysis in human renal proximal tubule cells; type: cell-based; details: 24 hours, dose dependent
Text: as §1, with “To test the” for “The”, “induce a clean G1-arrest in non-hematopoietic cells, G1 arrest was examined in” for “protect”, “cells.” for “cells from chemotherapy induced DNA damage was analyzed using etoposide and cisplatin.”

HSPCs (bone marrow) = assay: HSPC proliferation in bone marrow by EdU incorporation after oral gavage; type: in vivo, mice
Procedure: Mice were then sacrificed at the indicated times (0, 12, 24, 36, or 48 hours following compound administration), and bone marrow was harvested (n=3 mice per time point), as previously described (Johnson et al. J. Clin. Invest. (2010) 120(7), 2528-2536). Four hours before the bone marrow was harvested, mice were treated with 100 μg of EdU by intraperitoneal injection (Invitrogen). Bone marrow mononuclear cells were harvested and immunophenotyped using previously described methods and percent EdU positive cells were then determined (Johnson et al. J. Clin. Invest. (2010) 120(7), 2528-2536). In brief, HSPCs were identified by expression of lineage markers (Lin-), Sca1 (S+), and c-Kit (K+).
Four hours before animals were sacrificed and the bone marrow was harvested, mice were treated with 100 μg of EdU by intraperitoneal injection. Three mice per group were sacrificed at 12 hours and the remaining three animals per group were sacrificed at 24 hours. Results are shown in FIG. 6A as the ratio of EdU positive cells for treated animals at 12 or 24 hour time points compared to control.
Further experiments were completed with Compound T examining dose response and longer periods of compound treatment. […] […].
Both compounds were administered at 150 mg/kg by oral gavage. One hour prior to harvesting bone marrow, EdU was IP injected to label cycling cells. Bone marrow was harvested at 12, 24, 36, and 48 hours after compound treatment and the percentage of EdU positive HSPC cells was determined at each time point.

[8] = Mouse pharmacokinetics (oral gavage / intravenous); type: in vivo, mice; details: mouse
tHS68 human fibroblasts = assay: Protection from chemotherapy-induced cell death (Cell TiterGlo); type: cell-based; details: etoposide 5 μM or carboplatin 100 μM
Procedure: as §2

blood cell counts [9] = assay: 5FU-induced myelosuppression, single dose; type: in vivo, FVB/n female mice; details: 150 mg/kg oral, 30 minutes before 5FU 150 mg/kg i.p.
Procedure: Complete blood cell counts were measured every two days starting on day six.

CN1CCN(c2ccc(Nc3ncc4cc5n(c4n3)C3(CCCCC3)CNC5=O)nc2)CC1 [Compound T]
DNA damage as measured by γ-H2AX formation [1]: attenuated DNA damage | myelosuppression after repeated 5FU cycles (blood cell counts [2]): reduced the myelosuppression on Day 10 of the third cycle | protection from chemotherapy induced DNA damage (cell cycle distribution) [3]: protects renal proximal tubule epithelial cells from chemotherapy induced DNA damage | time post exposure by which Rb phosphorylation is blocked ([4]; Rb-dependent cell lines (tHS68, WM2664)): ≤ 16 h | effect on Rb phosphorylation ([4]; Rb-independent cells (A2058)): no effect | caspase 3/7 activation [5]: robust decrease in caspase 3/7 activation in a dose-dependent manner | effect on S-phase peak [6]: causes a loss of the S-phase peak | G1 cell cycle arrest [7]: robust G1 cell cycle arrest | EdU incorporation into HSPCs at 12 and 24 hours compared to control (HSPCs (bone marrow); 150 mg/kg oral gavage): reduction in EdU incorporation at 12 hours which was starting to return to normal at 24 hours | G1-arrest of bone marrow stem cells (HSPC) (HSPCs (bone marrow); oral gavage, mice): dose dependent, transient, and reversible G1-arrest | F [8]: 80% | half-life ([8]; plasma, po, 30 mg/kg, 30 mg/kg oral gavage, read-out: t1/2 p.o. (converted)): 5 h | half-life ([8]; plasma, po, 30 mg/kg, read-out: plasma half-life following oral administration): 3 to 5 h | bioavailability ([8]; plasma, po, 30 mg/kg, read-out: oral bioavailability (F (%))): 52 to 80% | AUC(0-inf) ([8]; plasma, iv, 10 mg/kg i.v.): 1.3 µM·h | clearance ([8]; plasma, iv, 10 mg/kg i.v.): 35 mL/min/kg | Vd ([8]; plasma, iv, 10 mg/kg i.v., read-out: Vss): 2.7 L/kg | AUC ([8]; plasma, 30 mg/kg oral gavage): 2.9 µM·h | Cmax ([8]; plasma, 30 mg/kg oral gavage): 2500 nM | Tmax ([8]; plasma, 30 mg/kg oral gavage): 1 h | protection from chemotherapy-induced cell death (cell survival) (tHS68 human fibroblasts): selective protection from carboplatin and etoposide-induced cell death | blood cell counts on day 14 after 5FU (blood cell counts [9]): significant protection of each cell type at Day 14 | recovery of hematopoietic cell lineages after 5FU (blood cell counts [9]): more rapid recovery
